In patent US7674613B2, “Live bacterium preparation containing lactic acid bacterium as active ingredient and food containing lactic acid bacterium” (Frente International Co., Ltd., priority 2002, dated 2010):

Assays:
[1] = tested on: Streptococcus mutans MT 8148 strain; test: Test Example 4: number of viable S. mutans with oligosaccharides and sugar alcohols, with or without L. salivarius TI 2711; type: cell-based; conditions: 5% addition, aerobic 37° C. 24 hours
Experimental: (§1) 5% each of xylitol, erythritol and sorbitol as sugar alcohols, and fructo-oligosaccharide and kestose as oligosaccharides were each added to a liquid medium consisting of GAM bouillon (Nissui) as a base medium and containing 0.7% glucose and 3% sucrose, and each medium was inoculated with 1×10^7 CFU/ml of the Streptococcus mutans MT 8148 strain. Then, aerobic culture was performed at 37° C. for 24 hours.
(§2) On the other hand, 1×10^7 CFU/ml of the Streptococcus mutans MT 8148 strain was inoculated to the aforementioned medium containing 5% of each sugar alcohol or oligosaccharide, and 1×10^7 CFU/ml of the Lactobacillus salivarius TI 2711 strain was further inoculated to the medium. Then, aerobic culture was similarly performed at 37° C. for 24 hours. After completion of the culture, the cell numbers of Streptococcus mutans MT 8148 strain and amounts of insoluble glucan were determined (according to the methods described in Test Example 1) for the both types of culture.

[2] = tested on: Streptococcus mutans MT 8148 strain; test: Test Example 4: insoluble glucan production by S. mutans with oligosaccharides and sugar alcohols, with or without L. salivarius TI 2711; type: cell-based
Experimental: as §1, §2

[3] = With inoculation of L. salivarius TI 2711 1×10^7 CFU/ml
[4] = Without inoculation of L. salivarius, control base medium 4.0 × 10^5

| Structure (SMILES) | Number of viable cells of S. mutans (CFU/ml) [1, 3] | Number of viable cells of S. mutans (CFU/ml) [1, 4] | inhibition of the production of insoluble glucan ([2]; erythritol alone, 5% addition) | inhibition of the production of insoluble glucan ([2]; mixed culture inoculated with Lactobacillus salivarius TI 2711 strain, amount without inoculation taken as 100%) |
| --- | --- | --- | --- | --- |
| OC[C@H]1O[C@@](CO)(OC[C@@]2(O[C@H]3O[C@H](CO)[C@@H](O)[C@H](O)[C@H]3O)O[C@H](CO)[C@@H](O)[C@@H]2O)[C@@H](O)[C@@H]1O [Kestose, kestose] | 2.0 × 10^5 CFU/ml | 5.0 × 10^5 CFU/ml | – | – |
| OC[C@@H](O)[C@@H](O)[C@H](O)[C@@H](O)CO [Sorbitol, sorbitol] | 3.0 × 10^5 CFU/ml | 4.0 × 10^5 CFU/ml | – | – |
| OC[C@@H](O)[C@@H](O)CO [Erythritol, erythritol] | 1.0 × 10^4 CFU/ml | 1.0 × 10^5 CFU/ml | about 60% | 90% |
| OC[C@@H](O)[C@H](O)[C@@H](O)CO [Xylitol, xylitol] | 5.0 × 10^5 CFU/ml | 4.0 × 10^5 CFU/ml | – | – |
